The compounds below were run against T1, Delta-aminolevulinic acid dehydratase (Escherichia coli (strain K12), UniProt P0ACB2) (assay: PBGS Assay). Conditions: pH 8.1; 37 °C.
T1 sequence (P0ACB2 whole entry): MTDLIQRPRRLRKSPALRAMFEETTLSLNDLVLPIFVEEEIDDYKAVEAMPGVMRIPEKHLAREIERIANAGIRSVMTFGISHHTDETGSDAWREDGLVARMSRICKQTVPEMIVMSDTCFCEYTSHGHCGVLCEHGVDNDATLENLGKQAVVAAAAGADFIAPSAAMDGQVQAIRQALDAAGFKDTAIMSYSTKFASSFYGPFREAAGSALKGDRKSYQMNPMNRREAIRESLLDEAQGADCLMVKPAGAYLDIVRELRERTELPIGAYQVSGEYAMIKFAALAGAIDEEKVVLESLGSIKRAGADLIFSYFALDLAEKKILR
Excerpt: The PBGS assay is a colorimetric assay based on the reaction between PBG and 4-dimethylaminobenzaldehyde (Ehrlich's reagent).

Compound | Ki [mM]
CC(=O)CCC(=O)O [Substrate analogue, 8] | 2.2
O=C(O)CCC(=O)CF [Substrate analogue, 9] | 0.085
COC(=O)CCC(=O)O [Substrate analogue, 10] | 38.4
CNC(=O)CCC(=O)O [Substrate analogue, 12] | 36.4
CC(=O)OCC(=O)O [Substrate analogue, 13] | 24.5
NCC(=O)OCC(=O)O [Substrate analogue, 14] | 18.2
CC(=O)NCC(=O)O [Substrate analogue, 15] | 18.8
CC(=O)CC[N+](=O)[O-] [Substrate analogue, 17] | 0.028
O=C(CF)CC[N+](=O)[O-] [Substrate analogue, 18] | 0.021
COC(=O)CC[N+](=O)[O-] [Substrate analogue, 19] | 1.88
O=C(O)CC[N+](=O)[O-] [Substrate analogue, 20] | 44.9
COC(=O)CCC(=O)NCC(=O)CCC(=O)O [Substrate analogue, 24] | 0.243
COC(=O)CCC(=O)NCC(=O)CC[N+](=O)[O-] [Substrate analogue, 28] | 0.02
O=C(O)CCC(=O)CCCCC[N+](=O)[O-] [Substrate analogue, 31] | 4.9
O=C(O)CCCCNC(=O)CCC(=O)O [Substrate analogue, 32] | 22.9
O=C(O)CCCCNC(=O)CC[N+](=O)[O-] [Substrate analogue, 33] | 18.2
O=C(O)CCC(=O)O [Succinic acid, 6] | 12.5

— BindingDB's records for doi:10.1002/1439-7633(20010504)2 (University of NeuchÂTel, 2001)
